Earlier results as cited in patent US20240408179A1, “ORAL DELIVERY OF THERAPEUTIC AGENTS” (GUANGZHOU DAZHOU BIOMEDICINE LTD., priority 2021, published 2024).

Key:
[1] = system: T2D patients with high risk of cardiovascular disease events; settings: empagliflozin group versus placebo group
[2] = humans, co-formulated with SNAC

| Molecule | relative risk reduction in death from cardiovascular causes [1] | oral bioavailability (BA %) [2] |
| --- | --- | --- |
| OC[C@H]1O[C@@H](c2ccc(Cl)c(Cc3ccc(O[C@H]4CCOC4)cc3)c2)[C@H](O)[C@@H](O)[C@@H]1O [empagliflozin] | 38% | – |
| semaglutide | – | 0.5-1% |
